In patent US9579406B2, “Phospholipid ether analogs as agents for detecting and locating cancer, and methods thereof” (Cellectar, Inc., priority 2004, dated 2017):
“Also recorded” adds a separate entry of the source. Read-outs that look alike come from different tables or passages of the source. Blank lines part the entries; values can stand above or below the molecule they belong to.

Assays:
[1] = MIRD extrapolation of rat tissue distribution data to permissible human dose; set-up: species or system human (from rat data)
Description: Accordingly the inventors have conducted the preliminary pharmacokinetic studies in human lung cancer patients at 1 mCi. Similar extrapolative calculation of the dosimetry for ^124I-NM404 afforded a similar 2 mCi dose level again based on projected dosimetry to the adrenals and bladder wall. Preliminary human data (5 patients), however, indicate very little uptake and retention of the agent into any abdominal organ (including the bladder and adrenals) with the exception of the liver which returns to background levels within 11 days.
Dosing of radioiodinated ^124I NM404 will be based on MIRD extrapolation of the iodine-131 dosimetry data derived from this ongoing study. The ^131I-NM404 dose is currently calculated as follows: Animal biodistribution data is used to determine the percentage of injected dose/organ at varying time points. These animal data are extrapolated to man by means of MIRD formalism (MIRDOSE PC v3.1) using standard conversion factors for differences in organ mass and anatomy between rat and standard man, providing predicted human organ doses; Based on these predicted doses, the permissible mCi dose to be injected into humans is determined using the maximal doses legally permitted by RDRC regulations for specific human tissue as defined in the Federal Register (21CFR Part 361.1) e.g. whole body, blood, blood forming tissues, eye lens, gonads—3 rem/dose; any other tissue—5 rem/dose. This approach was previously used to bring both NM324 and NM404 to clinical use, resulting in a calculated dose of 1 mCi.

[2] = system: A549 lung, PC-3 prostate, c-myc pancreatic tumors; test: microPET imaging in lung, prostate and pancreatic mouse tumor models; type: in vivo; settings: any time point
Description: Human pharmacokinetic studies have confirmed this finding as only 4% of the agent is cleared renally within 4 days of iv injection (majority is excreted via GI route).

CNS-1 glioma brain tumor = test: microPET imaging in rat CNS-1 brain tumor model; type: in vivo; settings: 24 h after iv injection
Experimental: The inventors recently successfully radiolabeled NM404 twice with iodine-124 from a commercial vendor (Eastern Isotopes). The radiochemical yield (>60% mean isolated yield, >99% purity) was very similar to what we usually obtain with commercial sources of iodine-125 or 131 sodium iodide. The PET imaging characteristics of ^124I-NM404 in a rat CNS-1 brain tumor model (FIG. 24) was investigated. Imaging times in this preliminary study were limited to 24 h and 4 days post injection due to microPET scanner availability. […] These compounds may then be used for extending NM404 PET utility into human cancer patients.

[3] = rats, cited from earlier work
lung cancer = test: Initial clinical studies of NM-324 in lung cancer patients; type: in vivo, human; settings: for liver radioactivity in patients: human, in vivo; for tumor uptake in cancer patients: scintigraphy
[4] = Blood plasma kinetics in rats; type: in vivo; settings: rat, read-out: elimination half life time in plasma (converted)
[5] = system: carrageenan-induced granulomas; test: Uptake in carrageenan-induced granulomas; set-up: species or system rats; settings: rat, in vivo
Description: This lack of specificity is a significant clinical issue in patients with cancer.

rat mammary tumor = test: Biodistribution in rat mammary tumor model; type: in vivo
Experimental: In one such example in a rat mammary tumor model, tumor-to-normal tissue ratios reached a maximum at 96 hours with a tumor-to-blood ratio of 8.6 and tumor-to-muscle ratio of 20:1.
Extensive biodistribution data for the prototype agent ^125I-NM324 in several tumor models has previously been reported. […] For example, in a rat mammary tumor model, tumor-to-normal tissue ratios reached a maximum at 96 hours with a tumor-to-blood ratio of 8.6 and tumor-to-muscle ratio of 20:1. […] Comparative biodistribution data for NM324 and NM404 in SCID mice have been obtained in prostate and A549 lung cancer tumor models.

[6] = system: several animal tumor models; test: Animal tumor localization studies with first generation PLE analogs; type: in vivo; settings: iodine-125 labeled; Walker 256, Lewis mammary, Dunning R3327, Vx2, human xenografts
Description: Phospholipid ethers can easily be labeled with iodine radioisotopes using radiolabeling methods developed in the labs. The iodophenyl phospholipid ether analogs are specifically designed so that the radioiodine affixed to each molecule is stable to facile in vivo deiodination. […] The inventors have now synthesized over 20 radiolabeled PLE compounds and tested in vitro and in vivo. […] Optimal tumor localization of these agents takes from one to several days due to the more rapid clearance of the radioactivity from normal tissues relative to tumor.

serum proteins = settings: cited from earlier work
[7] = cited from earlier work
[8] = mouse; cited from earlier work
Phospholipase C (PLC) = biological target: T1, Phospholipase C (PLC) (Bacillus cereus, UniProt P09598); test: PLC substrate assay; type: biochemical
T1 construct: PLC isolated from Bacillus cereus; host or cells: Bacillus cereus (natural source)
Experimental: Formal metabolism studies were conducted on several PLE analogs including NM324, the predecessor of NM404. In these studies, each agent was examined to determine their ability to serve as substrates for enzymes associated with PLE metabolism. Three major enzymatic pathways are involved in the metabolism of PLE. O-Alkyl glycerol monooxygenase (AGMO) is responsible for cleavage of the alkyl ether linkage at C-1 to form either the long chain fatty alcohol or subsequently, the corresponding fatty acid. Phospholipases C (PLC) and D (PLD), on the other hand, give rise to the glycerol or phosphatidic acid products, respectively.

[9] = system: Walker-256 carcinosarcoma; test: Tissue distribution of radioactivity in rats bearing Walker-256 carcinosarcoma; type: in vivo, rat
MAT LyLu cells = test: Gamma camera scintigraphy in rat Dunning R3327 (MAT LyLu) prostate cancer model; settings: tumor-bearing rats, 24 and 48 hours post injection
Description: The MatLyLu (Dunning R3327 rat) model, a rat prostate tumor line, was used specifically to screen 9 specific analogs prior to entering them into control for dosimetry and tumor-bearing animals for determining tumor/background ratios.
In order to expedite the screening process and minimize the number of tumor bearing animals utilized in multiple time point tissue distribution studies, new radioiodinated homologs were imaged by gamma camera scintigraphy in the rat Dunning R3337 (MAT LyLu strain) prostate cancer model. […] Gamma camera images were obtained at multiple time points including 24 and 48 hours post injection.
The new PLE analogs were synthesized and radiolabeled with ^125I for initial image analysis in Copenhagen rats bearing Dunning R3327 prostate tumors.

[10] = type: in vivo, human
[11] = system: non-small cell lung cancer; settings: human, in vivo
Experimental: (§1) The preparation dispensed by the Nuclear Pharmacy will be certified as sterile and pyrogen-free. The subject will be monitored for adverse reactions during and after the infusion. Vital signs will be checked immediately after the infusion, and at 60 minute intervals up to four hours post-injection. They will be observed for adverse events throughout this time. […] Vital signs will be monitored at these times. Any adverse reactions experienced by the subjects will be recorded.

[12] = system: non-small cell lung cancer; test: Planar gamma-camera scintigraphy with 131I-NM-404 in NSCLC patients; settings: <1 mCi, n=3
Experimental: as §1

T1 sequence (P09598 39-283 limits assumed): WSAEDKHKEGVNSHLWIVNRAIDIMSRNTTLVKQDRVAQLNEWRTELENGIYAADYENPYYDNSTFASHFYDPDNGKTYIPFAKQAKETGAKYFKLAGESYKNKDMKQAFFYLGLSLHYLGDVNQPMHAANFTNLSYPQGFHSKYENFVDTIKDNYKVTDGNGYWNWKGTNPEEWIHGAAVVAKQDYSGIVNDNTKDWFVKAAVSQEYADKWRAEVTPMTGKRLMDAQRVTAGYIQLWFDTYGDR

Structure (SMILES): C[N+](C)(C)CCOP(=O)([O-])OCCCCCCCCCCCCCCCCCCc1ccc([124I])cc1 [^124I-NM404]
dose level based on projected dosimetry to the adrenals and bladder wall ([1]; 124I label): 2 mCi
bladder activity [2]: lack of bladder activity at any time point; also recorded: No bladder activity was evident at any time point
tracer uptake in brain tumor and surrounding brain (CNS-1 glioma brain tumor): intense uptake of the tracer in the brain tumor accompanied by little or no uptake in surrounding intact brain tissue

Structure (SMILES): CCCCCCCCCCCCCCCCOP(=O)([O-])OCC[N+](C)(C)C [Miltefosine, hexadecyl phosphocholine]
maximum tolerated dose ([3]; over a 4-week period): 39 nmol/kg
LD50 [3]: 606 nmol/kg

liver radioactivity in patients (lung cancer): high liver radioactivity
half-life [4]: 146 min
calculated dose for clinical use [1]: 1 mCi
tumor-to-blood ratio (rat mammary tumor; 96 hours): 8.6
time of maximum tumor-to-normal tissue ratios (rat mammary tumor; rat, in vivo): 96 h
Structure (SMILES): C[N+](C)(C)CCOP(=O)([O-])OCCCCCCCCCCCCc1cccc(I)c1 [NM-324, 12-(3-iodophenyl)-dodecylphosphocholine]
liver radioactivity in patients (lung cancer; listed as NM324): unacceptable accumulation in liver tissue
lung tumor uptake (lung cancer; images 6 h post injection, lung cancer patient): intense lung tumor uptake
tumor uptake in cancer patients (lung cancer): excellent tumor uptake
tumor uptake in cancer patients (lung cancer; listed as 131I-NM-324): Uptake is seen in the left lingular lung cancer (T) with increasing tumor-to-background ratios over time
uptake and retention in granulomas [5]: no uptake and retention
tumor localization [6]: selectively localized in tumors over time

Structure (SMILES): CCCCCCCCCCCCCCCCCCOCC(COP(=O)([O-])OCC[N+](C)(C)C)OC (stereo not drawn) [ET-18-OCH3]
ether lipid bound to HDL (serum proteins): about 6%
ether lipid bound to albumin (serum proteins): 71%
maximum tolerated dose ([7]; intravenous): 50 mg/kg
adverse effects reported ([7]; up to 4 hours post-injection): pulmonary edema impaired hepatic function and hemolysis
LD50 (oral) [8]: 200 mg/kg

Structure (SMILES): [3H]C(CCCCCC)C([3H])CCCCCCCC(=O)O[C@H](COC(=O)CCCCCCCCCCCCCCC)COP(=O)([O-])OCC[N+](C)(C)C (stereo partly drawn) [DPPC, 1-palmitoyl-2-[3H]-palmitoyl-L-3-phosphatidylcholine]
hydrolysis by PLC (Phospholipase C (PLC)): underwent significant hydrolysis

Structure (SMILES): C[N+](C)(C)CCOP(=O)([O-])OCCCCCCCc1ccc(I)cc1 [NM-396]
radioactivity in all of the organs surveyed ([9]; 24 hours): < 0.10 % ID/g
radioactivity in the thyroid ([9]; 24 hours): 213 % ID/g
localization in tumor tissue ([9]; all time points examined): did not localize in tumor tissue at any of the time points examined

Structure (SMILES): COC(COCCCCCCCCCCCCc1cccc([125I])c1)COP(=O)([O-])OCC[N+](C)(C)C (stereo not drawn) [NM-294]
tumor localization [6]: selectively localized in tumors over time

Structure (SMILES): C[N+](C)(C)CCOP(=O)([O-])OCCCCCCCCCCCCc1ccc(I)cc1 [NM-346]
tumor uptake and liver/abdominal radioactivity by gamma camera imaging (MAT LyLu cells): readily visualized

Structure (SMILES): C[N+](C)(C)CCOP(=O)([O-])OCCCOCCCCCCCCCCCCCCCCCCc1ccc(I)cc1 [NM-412, 1-O-[18-(p-Iodophenyl)octadecyl]-1,3-propanediol-3-phosphocholine]
tumor uptake and liver/abdominal radioactivity by gamma camera imaging (MAT LyLu cells): high levels of liver and abdominal radioactivity; also recorded: tumor uptake accompanied by high liver and abdominal radioactivity levels
tumor uptake and liver/abdominal radioactivity by gamma camera imaging (MAT LyLu cells; listed as 8): fairly high levels of liver and abdominal radioactivity

Structure (SMILES): C[N+](C)(C)CCOP(=O)([O-])OCCCCCCCCCCCCCCCCCCc1ccc([131I])cc1 [^131I-NM404]
time for liver to return to background levels ([10]; 5 patients): ≤ 11 days
dose level safe to administer ([10]; advanced non-small cell lung cancer subjects): 0.3 µg/kg
safety ([10]; first-in-human pharmacokinetic studies): safe
crossing of the blood brain barrier [11]: doesn't cross the intact blood brain barrier
starting maximum dose [1]: around 1.9 mCi
5 Rad limiting dose to the adrenals and bladder wall ([1]; 131I label): 2 mCi
tumor uptake and retention [12]: tumor uptake and prolonged retention in the primary lung tumors

Structure (SMILES): COC(COCCCCCCCCCCCCCCCCCCc1ccc(I)cc1)COP(=O)([O-])OCC[N+](C)(C)C (racemic) [NM-410, 1-O-[18-(p-Iodophenyl)octadecyl]-2-O-methyl-rac-glycero-3-phosphocholine]
tumor uptake and liver/abdominal radioactivity by gamma camera imaging (MAT LyLu cells): high hepatic uptake, significant abdominal accumulation and retention or poor tumor uptake and retention; also recorded: high radioactivity levels in the liver and abdomen with little to no uptake of the agent into tumors
tumor uptake and liver/abdominal radioactivity by gamma camera imaging (MAT LyLu cells; listed as 10): retarded tumor uptake significantly

Structure (SMILES): O=C([O-])CC(O)(CC(=O)[O-])C(=O)[O-].[Ga+3] [Gallium citrate, reference compound]
uptake and retention in granulomas [5]: did indeed concentrate significantly in the granulomatous lesions

Structure (SMILES): C[N+](C)(C)CCOP(=O)([O-])OCCCCCCCCCCCCCCCc1ccc(I)cc1 [NM-397]
increase in tumor uptake versus C12 analog 4 ([9]; 24 h): 2 fold
radioactivity in the duodenum (maximum) ([9]; 48 hours after administration): 1.38±0.24 % ID/g
radioactivity in the tumor (peak) ([9]; 48 hours after administration): 1.65±0.23 % of ID/g
blood levels ([9]; 120 hours): 0.07±0.00 % of ID/g
time of peak tumor radioactivity ([9]; after administration): 48 h
tumor uptake and liver/abdominal radioactivity by gamma camera imaging (MAT LyLu cells): readily visualized
